{"source": "patent US11712436B2", "about": "“Theranostic test for antifungal treatment of inflammatory diseases” (Cornell University, priority 2017, dated 2023)", "key": {"[1]": {"system": "intestinal fungi", "experiment": "DSS colitis in ΔCX3CR1 mice with fungal targeting by fluconazole", "format": "in vivo", "conditions": "3% DSS in drinking water, fluconazole 0.5 mg/ml in drinking water starting 4 days prior the first DSS dose, FIG. 3E-G", "protocol": "Cx3cr1^GFP/GFP, C57BL/6J, Cd11c-cre^+/+, Irf4^fl/fl, Cx3cr1^tm3(DTR)Litt/J (Cx3cr1^DTR), Syk^fl/fl, Cx3cr1^tm2.1(cre/ERT2)Jung/J (Cx3cr1-cre/ERT2^+/+), Batf3^−/−, Thy1.1, and OVA-specific CD4^+ (OT-II) T-cell receptor-transgenic (H-2^b) mice were purchased from the Jackson Laboratories (Bar Harbor, Me.). […]. For depletion, mice generated through such breeding (Cd11c-cre^+/− Cx3cr1^DTR mice) and the respective littermate controls (Cd11c-cre^−/− Cx3cr1^DTR) were injected for three consecutive days with 100 ng of DT i.p followed by maintenance injection every other day for the length of the experiments. Depleted mice were designated throughout the study as ΔCX3CR1 mice. Irf4^fl/fl mice were bred to hemizygous Cd11c-cre^+/− mice to allow for genetic ablation of CD11c^+ CD11b^+ CD103^+ dendritic cells (Cd11c-cre^+/− Irf4^fl/fl mice, designated throughout the study as ΔIrf4 mice) and the generation of littermate controls (Cd11c-cre^−/− Irf4^fl/fl mice). Syk^fl/fl mice were bred to Cx3cr1-cre/ERT2^+/+ to allow for the selective depletion of Syk in CX3CR1 expressing cells upon administration of tamoxifen. […]\nCx3cr1^DTR or littermate control mice were injected with DT for three consecutive days, prior to the induction of colitis with 3% (w/v) Dextran sulfate sodium (DSS, MP Biomedicals, LLC, Aurora, Ohio) in the drinking water. […] Body weight and the presence of occult blood were assessed daily. […]"}, "[2]": {"system": "most Candida species and other dimorphic fungi", "conditions": "when used during the onset of intestinal disease; cited from earlier work"}}}
{"smiles": "OC(Cn1cncn1)(Cn1cncn1)c1ccc(F)cc1F", "note": "[fluconazole]", "values": [{"measurement": "intestinal disease (DSS colitis: body weight change, neutrophil infiltration in colonic LP, H&E histology)", "setting": "[1]", "value": "significantly ameliorated intestinal disease"}, {"measurement": "colitis in mice with defects in antifungal immunity", "setting": "[2]", "value": "ameliorates colitis"}]}
